Assay results: US4312883A, “Furocoumarin for the photochemotherapy of psoriasis and related skin diseases” (Consiglio Nazionale delle Ricerche, priority 1979, dated 1982)
Structures can show the parent of a compound that is named as a salt. Where two headings read alike, the source gives them in different places.

Experiments:
DNA [1] = test: Capacity to form inter-strand cross-linkages in DNA; format: biochemical; settings: (psr = 100)
Description: All these compounds were not suitable to photoinduce in DNA inter-strand cross-linkages. […] These tests were carried out according to the method of F. Bordin et al., Photochem. Photobiol., 29,1063 (1979).

skin = test: Relative skin phototoxicity; settings: (psr = 100)
[2] = tested on: DNA synthesis in Ehrlich ascites tumor cells; test: Inhibition of DNA synthesis (and DNA and RNA synthesis) on irradiation at 365 nm; format: cell-based; settings: for inhibition of DNA synthesis, relative: relative (ang = 100)
Text: (§1) Photobiological activity: A significant test for assessing photobiological activity of alkylangelicins is the study of their capacity to inhibit DNA and RNA synthesis in Ehrlich ascites tumor cells. In Table III the capacity of inhibition is expressed as ID50, that is the irradiation does, in terms of quanta at 365 nm, necessary to inhibit in these cells the 50% of the DNA and RNA synthesis in the presence of a constant amount of alkylangelicin. […] Moreover, in general it can be observed that in this simple biological system a close correlation exists between photobiological activity and the capacity to induce photochemical lesions in DNA, that is photoreactivity.

DNA [3] = test: Photobinding to DNA, rate constants of the photoreactions; format: biochemical; settings: for Rate constants of the photoreactions with DNA: in vitro, UV-A irradiated; for Rate constants of the photoreactions with DNA, relative: relative (ang = 100); for photobinding capacity to DNA (in words): versus angelicin
Text: (b) Determined according to F. Dall'Acqua, S. Marciani, F. Zambon and G.
Rodighiero, Photochem. Photobiol., 29,489(1979).
Photobinding capacity to DNA: The introduction of one or two methyl groups in the molecule of angelicin leads to a strong increase of the photobinding to DNA; see Table II. […] Photobiol., 29, 489 (1979).

DNA [4] = test: Dark complex formation (intercalation) with DNA in the ground state, binding parameters; design: K (association constants) of the complexes with DNA: unit not given here; settings: for K (association constants) of the complexes with DNA / 1/n (frequency of binding sites): in vitro, ground state; for K (association constants) of the complexes with DNA: McGhee and Von Hippel method; for 1/n (frequency of binding sites): molecules bound per nucleotide; for 1/n (frequency of binding sites), relative / K (association constants), relative: relative (ang = 100)
Text: Dark complex formation: It is known from F. Dall'Acqua, et al. Chem.-Biol. Interactions 21,103 (1978) that the intercalated complex formed by furocoumarins with DNA strongly affects the successive photoaddition increasing the rate of photobinding. […] These parameters have been determined according to the method of McChee and Von Hippel, J.Mol.Biol, 86, 469 (1974).
(a) Determined according to Mc Ghee and Von Hippel, J. Mol. Biol.,

[5] = tested on: RNA synthesis in Ehrlich ascites tumor cells; test: Inhibition of RNA synthesis on irradiation at 365 nm; format: cell-based; settings: relative (ang = 100)
Text: as §1

Solubility = format: physicochemical
epidermal DNA synthesis [6] = test: Inhibition of epidermal DNA synthesis in the mouse in vivo after topical application and UV-A irradiation; settings: light or radiation study, 0.01% methanol solutions, UV-A 9 J/cm^2, read-out: Percent inhibition ± standard error of epidermal DNA synthesis
Description: DNA samples were dissolved in water and their specific radioactivity determined.
Each drug substance was studied using at least six mice.

[7] = tested on: Salmonella typhimurium TA 100; test: Ames test; format: cell-based; settings: Salmonella typhimurium TA 100 his G46 (uvrB^- rfa) pKM101; versus 4,5'-dimethylangelicin
psoriasis = test: Topical photochemotherapy of psoriasis in patients; format: in vivo, human; settings: for No. of patients with Excellent result / No. of patients with Fair result / No. of patients with Good result / No. of patients with Poor result: topical 0.1% w/v + UV-A; for No. of patients with Excellent result: Excellent = 90% clearance; for No. of patients with Fair result: Fair = 50-70%; for No. of patients with Good result: Good = 70-90%; for No. of patients with Poor result: Poor 40%
Text: Clinical data: The effectiveness of certain representative alkylangelicins according to the present invention, specifically 5-methylangelicin, 4,5'-dimethylangelicin, 4'-hydroxymethyl-4,5'-dimethylangelicin, 4'-hydroxymethyl-4,5'-dimethylangelicin and 4,5-dimethylangelicin, has been tested by measuring their capacity to resolve psoriasis in various patients. For a direct comparison the efficacy of the parent unsubstituted angelicin and that of three very effective linear furocoumarins, that is 8-methoxypsoralen (8-MOP), 5-methoxypsoralen (5-MOP), and 4,5',8-trimethylpsoralen (TMP) were also tested.
In each treatment four areas of the affected skin were used;
(a) In the first area an alcohol lotion, containing 10% glycerine, of the tested compound (0.1% w/v) was applied until a concentration of […] was reached then left to evaporate by the heat of the body. After half an hour the area was irradiated with high intensity UV-A emitting low pressure mercury fluorescent lamps with a wavelength of 320-400 nm. The irradiation doses were selected in the range of 4.5-13 J/cm^2 for each application as a function of the sensitivity of the skin of the patients; when the skin sensitivity was higher, the light doses were lower and vice versa.
(b) A second area was treated with an alcohol solution of the drug as in (a) but it was covered and maintained in the dark.
(c) A third area, where the drug was not applied, was irradiated as in (a) but in general with higher UV-A doses.
(d) A fourth area was not treated at all, neither with the drug, not with UV-A.
The treatment with the alkylangenlicins referred to above was repeated 5 time a week for two or more weeks; the total number of treatments was between 8 and 20 per subject. In some cases, as for instance with 5-methylangelicin, a good clearing of psoriasis was observed after 8 treatments.
In order to avoid induction of photosensitization processes such as redness and erythema in the reference tests made with the linear furocoumarins 8-MOP, 5-MOP, TMP, lower light doses were used than in the case of alkylangelicins, the treatments were repeated at a frequency of no more than three times a week.

Acute toxicity in mice = settings: mouse, in vivo, po
DNA [8] = settings: (psr = 100); footnote (c), reference compounds; cited from earlier work
melamin pigmentation = settings: Table I; cited from earlier work
epidermal DNA synthesis [9] = test: Inhibition of the synthesis of epidermal DNA of the mouse in vivo after oral administration and UV-A irradiation; settings: oral 0.25 g/Kg, UV-A 9 J/cm^2 after two hours
Text: Considering that the topical skin tests carried out on mice to evaluate the effectiveness of these substances has yielded data which correlate well with the clinical data, such a test conveniently modified has been adopted to evaluate the effectiveness of the alkylangelicins after oral administration followed by UV-A irradiation.
In this connection experiments have been conducted using mice 20±2 g in weight, that were starved for three hours before oral administration of the alkylangelicins. Groups of 5 mice were fed a suspension of 0.5% methylcellulose in water containing the alkylangelicins of the invention at a dosage of 0.25 g/Kg. The animals were kept in the dark for two hours, that is for the time necessary for absorption, systemic distribution and localization of the drug at the level of the skin. The animals were then irradiated with UV-A light, 9 J/cm^2. Later the animals were sacrificed and the inhibition of the epidermal DNA synthesis was tested; the results obtained are reported in Table VI. The skin on the back, protected from light by a dark paper, was assumed as a control. As a reference 8-MOP, used under the same experimental conditions, was also tested. The significant activity of the alkylangelicins according to the present invention, higher than that of 8-MOP, in inhibiting the epidermal DNA synthesis in mice upon oral administration allows one to consider these compounds as also being effective for oral administration to humans for photochemotherapy of psoriasis and of other skin diseases that are characterized by cellular hyperproliferation.

[10] = known furocoumarins, Table I; cited from earlier work
DNA [11] = settings: cited from earlier work
DNA synthesis = settings: Table I; cited from earlier work
[12] = Table I; cited from earlier work
[13] = cited from earlier work

Row | Compound | capacity to form interstrand cross-linkages (DNA [1]) | Relative skin phototoxicity (skin) | inhibition of DNA synthesis, relative [2] | Rate constants of the photoreactions with DNA (DNA [3]) | Rate constants of the photoreactions with DNA, relative (DNA [3]) | photobinding capacity to DNA (in words) (DNA [3]) | K (association constants) of the complexes with DNA (DNA [4]) | 1/n (frequency of binding sites) (DNA [4]) | 1/n (frequency of binding sites), relative (DNA [4]) | K (association constants), relative (DNA [4]) | inhibition of RNA synthesis, relative [5] | water solubility (Solubility) | inhibition in vivo at 0.01 % (epidermal DNA synthesis [6]) | No. of patients with Excellent result (psoriasis) | No. of patients with Fair result (psoriasis) | No. of patients with Good result (psoriasis) | No. of patients with Poor result (psoriasis) | LD50 (Acute toxicity in mice) | capacity to form interstrand cross-linkages (DNA [8]) | Percent inhibition ± standard error of epidermal DNA synthesis (epidermal DNA synthesis [9]) | further results
1 | Cc1oc2ccc3c(C)cc(=O)oc3c2c1CN [4,5'-dimethyl-4'-aminomethylangelicin hydrochloride] | 0 | 0 | 25 | 0.8 K × 10^-2 × min^-1 | 72 | lower than that of angelicin | 16300 | 0.255 | 404 | 2910 | 23.3 | water soluble | – | – | – | – | – | – | – | – | capacity to inhibit the DNA and RNA synthesis (in words) ([2]; Ehrlich ascites tumor cells, versus angelicin): lower than that of angelicin
2 | Cc1oc2ccc3c(C)cc(=O)oc3c2c1COCCN(C)C [4,5'-dimethyl-4'-N,N-dimethylaminoethoxymethylangelicin] | 0 | 0 | 290 | – | – | strongly increased photobinding capacity | > 10000 | > 0.15 | > 230 | > 1700 | 162 | water soluble | 29.4 ± 16.2% | – | – | – | – | – | – | – | increase of K (affinity towards DNA) (DNA [4]; on introduction of a cationic moiety in addition to the two methyl groups): more than 20 times
3 | Cc1cc2occc2c2oc(=O)ccc12 [5-methylangelicin] | 0 | 0 | 275 | 3.41 K × 10^-2 × min^-1 | 298 | – | 1560 | 0.071 | 112 | 278 | 281 | – | 47.5 ± 1.19% | 2 patients | 0 patients | 5 patients | 0 patients | 2000 mg/kg | – | – | mutagenic activity (Ames test) [7]: of the same order of magnitude as that of 4,5'-dimethylangelicin; efficacy in psoriasis patients (in words) (psoriasis; topical + UV-A): very active, probably more active than the same amount of 8-MOP; number of treatments to good clearing of psoriasis (psoriasis; topical + UV-A, 5 times a week, in some cases): 8 treatments
4 | O=c1ccc2cc3ccoc3cc2o1 [psoralen, reference compound] | – | 100 | 275 | 3.8 K × 10^-2 × min^-1 | 345 | – | 400 | 0.108 | 171 | 71.4 | 166 | – | 47.8 ± 7.9% | – | – | – | – | – | 100 | – | –
5 | COc1c2occc2cc2ccc(=O)oc12 [8-MOP, 8-methoxypsoralen, reference compound] | – | 71 | 249 | 2.3 K × 10^-2 × min^-1 | 209 | – | 740 | 0.128 | 203 | 132 | 93 | – | 61 ± 1.6% | 3 patients | 2 patients | 3 patients | 2 patients | 800 mg/kg | 63 | 39.1 ± 3.7% | Stimulation of melamin pigmentation (melamin pigmentation): strong, well known; Photosensitizing activity [10]: known, strong; DNA intercalation property (DNA [11]; Table I): strong; Interstrand cross-linking induction in DNA (DNA [11]; Table I): strong, well known; Monoadduct forming property (DNA [11]; Table I): known, strong; Photobinding capacity to DNA (DNA [11]; known furocoumarins): known, strong; DNA synthesis inhibiting property (DNA synthesis): known, strong; Mutagenicity [12]: known, strong; Carcinogenicity (oral) ([13]; oral): weak; Carcinogenicity (topical) ([13]; topical): strong
6 | Cc1cc2c(ccc3c(C)cc(=O)oc32)o1 [4,5'-dimethylangelicin] | 0 | 0 | 230 | 4.0 K × 10^-2 × min^-1 | 363 | – | 1410 | 0.094 | 149 | 252 | 172 | – | 37.6 ± 4.9% | 0 patients | 3 patients | 1 patients | 0 patients | 2500 mg/kg | – | 51.0 ± 8.0% | –
